# Assay results: patent publication US9757388B2 (Acerus Pharmaceuticals SRL, priority 2011, dated 2017)
# Details: drug substance
compound,measurement,value
"C[C@]12CC[C@H]3[C@@H](CCC4=CC(=O)CC[C@@]43C)[C@@H]1CC[C@@H]2O [Testosterone, 17β-Hydroxyandrost-4-en-3-one]",Stability in air,"powder. It is odourless, and stable in air."
